Assay [1] addresses influenza transcription (flu APR8 virus) (Influenza A virus, UniProt P03433). Nature of the assay: biochemical. Further details: species or system influenza virus A/PR/8/34 (H1N1).
For a further assay, the target named is VSV transcription (Vesicular stomatitis Indiana virus, UniProt P03523). Nature of the assay: biochemical.
In the next assay the target is T7 Phage RNA Polymerase (Escherichia phage T7, UniProt P00573). Nature of the assay: T7 Phage RNA Polymerase assay. The assay is classed as biochemical.
The next assay deals with T1, Hela RNA Polymerase II (Homo sapiens, UniProt P24928).
T1 construct: Hela RNA polymerase II in Hela extract; endogenous in cells; host or cells: HeLa extract
Nature of the assay: Hela RNA polymerase II run-off transcription. The assay is classed as biochemical. Here is the method: d. Hela RNA polymerase II-Compounds or DMSO were incubated in a run-off transcription assay using Hela RNA polymerase II in Hela extract with 50 ng/μl of pD5 template (Adeno major late promoter) in a final reaction containing 500 μM A,C,GTP and 0.5 μM [32]P-UTP in 15 mM Tris-HCl, pH 7.9/7.0 mM MGCl2 /32 mM (NH4)2 SO4 /0.2 mM EDTA/1.3 mM DTT for 60 min at 30° C. Following ethanol precipitation, reaction products were electrophoresed on 8% polyacrylamide gels containing 7M urea.

In another assay the target is T2, Hela DNA Polymerase-a (Homo sapiens, UniProt P09884).
T2 construct: Hela cell DNA polymerase α; endogenous in cells; host or cells: HeLa cells
T2 sequence (P09884 1-1462): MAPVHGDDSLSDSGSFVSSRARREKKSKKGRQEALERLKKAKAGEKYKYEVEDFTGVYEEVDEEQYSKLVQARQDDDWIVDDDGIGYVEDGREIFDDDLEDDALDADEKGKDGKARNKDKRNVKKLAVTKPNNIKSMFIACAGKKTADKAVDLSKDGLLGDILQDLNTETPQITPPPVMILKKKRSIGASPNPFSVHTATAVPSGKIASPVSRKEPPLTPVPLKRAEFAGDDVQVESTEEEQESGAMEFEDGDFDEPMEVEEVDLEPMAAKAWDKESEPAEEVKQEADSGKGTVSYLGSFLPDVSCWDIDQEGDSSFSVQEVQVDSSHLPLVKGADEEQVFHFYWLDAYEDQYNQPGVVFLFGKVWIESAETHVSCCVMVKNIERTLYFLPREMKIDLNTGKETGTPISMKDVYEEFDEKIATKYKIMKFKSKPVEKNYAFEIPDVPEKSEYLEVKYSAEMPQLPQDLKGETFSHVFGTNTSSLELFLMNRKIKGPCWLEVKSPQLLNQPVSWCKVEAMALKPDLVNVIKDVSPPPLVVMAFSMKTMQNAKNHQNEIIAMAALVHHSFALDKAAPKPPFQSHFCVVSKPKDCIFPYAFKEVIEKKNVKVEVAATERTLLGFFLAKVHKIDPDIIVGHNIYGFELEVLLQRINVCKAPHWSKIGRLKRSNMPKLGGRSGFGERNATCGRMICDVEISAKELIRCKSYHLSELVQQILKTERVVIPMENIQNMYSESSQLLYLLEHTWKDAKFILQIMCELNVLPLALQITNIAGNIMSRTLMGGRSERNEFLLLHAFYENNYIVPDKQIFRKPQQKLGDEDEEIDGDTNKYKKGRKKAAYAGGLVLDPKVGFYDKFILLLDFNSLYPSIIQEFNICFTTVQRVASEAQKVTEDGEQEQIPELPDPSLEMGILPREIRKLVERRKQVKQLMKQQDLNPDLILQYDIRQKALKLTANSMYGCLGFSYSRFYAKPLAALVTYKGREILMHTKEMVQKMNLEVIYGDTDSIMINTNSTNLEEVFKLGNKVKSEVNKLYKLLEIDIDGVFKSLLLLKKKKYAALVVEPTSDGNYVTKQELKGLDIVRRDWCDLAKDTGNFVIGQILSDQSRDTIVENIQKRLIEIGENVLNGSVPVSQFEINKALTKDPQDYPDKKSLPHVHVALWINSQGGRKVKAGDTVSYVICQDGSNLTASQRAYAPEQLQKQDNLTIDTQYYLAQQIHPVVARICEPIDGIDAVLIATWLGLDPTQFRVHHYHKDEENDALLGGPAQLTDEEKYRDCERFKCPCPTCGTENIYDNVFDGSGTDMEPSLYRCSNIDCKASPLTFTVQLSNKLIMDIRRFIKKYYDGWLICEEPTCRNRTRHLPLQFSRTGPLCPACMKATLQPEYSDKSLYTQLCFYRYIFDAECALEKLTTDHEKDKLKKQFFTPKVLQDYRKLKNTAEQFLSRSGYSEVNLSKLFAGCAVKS
Nature of the assay: Hela DNA Polymerase-a assay. The assay is classed as biochemical.

For another assay, the target named is HIV RNase H (Human immunodeficiency virus type 1 group M subtype B, UniProt P04585). Description: HIV RNase H assay. The assay is classed as biochemical.
For assay [2], the target named is EcoRI Restriction Endonuclease (Escherichia coli, UniProt P00642). Nature of the assay: EcoRI Restriction Endonuclease assay. The assay is classed as biochemical.
In the next assay the target is Influenza Endonuclease (Influenza A virus, UniProt P03433). Description: biochemical.
For assay [3], the target named is influenza virus transcription (Influenza A virus (A/Japan/305-/1957(H2N2)), UniProt Q1K9Q4). It counts as biochemical, influenza virus A/Japan/305/57 (H2N2). The settings on record: read-out: IC50, inhibition of influenza virus transcription; virus strain A/Japan/305/57 (H2N2); primed with cap1 ALMV.
The target of assay [4] is influenza virus transcription (Influenza A virus (A/Port Chalmers/1/1973(H3N2)), UniProt Q1PUD2). It counts as biochemical, influenza virus A/Port Chalmers/1/73 (H3N2). To be noted: read-out: IC50, inhibition of influenza virus transcription.
Assay [5] concerns the target influenza virus transcription (Influenza A virus (A/nt/60/1968(H3N2)), UniProt P03434). It counts as biochemical, influenza virus A/Hong Kong/8/68 (H3N2). The settings on record: read-out: IC50, inhibition of influenza virus transcription; virus strain A/Hong Kong/8/68 (H3N2); primed with cap1 ALMV.
Assay [6] relates to influenza virus transcription. Nature of the assay: in vitro transcription primed with cap1 ALMV, B/Hong Kong/5/72. It counts as biochemical, influenza virus B/Hong Kong/5/72. To be noted: virus strain B/Hong Kong/5/72, read-out: IC50, inhibition of influenza virus transcription.
Assay [7] addresses cap-independent influenza transcription primed with ApG (Influenza A virus, UniProt P03431). Nature of the assay: biochemical.
For the next assay, the target named is RNase A (Bos taurus, UniProt P61823). Description: RNase A assay.
For the next assay, the target named is RNase U2 (Ustilago sphaerogena, UniProt P00654). Description: RNase U2 assay.
A further assay concerns the target RNase T1 (Aspergillus oryzae, UniProt P00651). Nature of the assay: RNase T1 assay.

Structures can show the parent of a compound that is named as a salt. Where two headings read alike, the source gives them in different places. Bounds are passed on as bounds.

Sequence of EcoRI Restriction Endonuclease (P00642 2-277): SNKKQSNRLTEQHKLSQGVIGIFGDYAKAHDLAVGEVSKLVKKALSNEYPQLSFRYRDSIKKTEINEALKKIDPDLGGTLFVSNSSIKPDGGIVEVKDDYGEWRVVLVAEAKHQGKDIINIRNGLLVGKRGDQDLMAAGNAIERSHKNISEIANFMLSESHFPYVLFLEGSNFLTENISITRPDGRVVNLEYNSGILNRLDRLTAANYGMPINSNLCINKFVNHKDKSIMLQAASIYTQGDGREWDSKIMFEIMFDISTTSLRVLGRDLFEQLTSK
Sequence of RNase U2 (P00654 whole entry): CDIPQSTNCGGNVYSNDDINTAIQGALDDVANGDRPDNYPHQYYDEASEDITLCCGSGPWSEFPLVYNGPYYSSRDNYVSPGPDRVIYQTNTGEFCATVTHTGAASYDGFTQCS
Sequence of RNase T1 (P00651 27-130): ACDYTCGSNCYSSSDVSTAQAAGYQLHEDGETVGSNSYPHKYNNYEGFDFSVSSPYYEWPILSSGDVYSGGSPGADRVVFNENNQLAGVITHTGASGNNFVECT
Sequence of cap-independent influenza transcription primed with ApG (P03431 whole entry, looked up): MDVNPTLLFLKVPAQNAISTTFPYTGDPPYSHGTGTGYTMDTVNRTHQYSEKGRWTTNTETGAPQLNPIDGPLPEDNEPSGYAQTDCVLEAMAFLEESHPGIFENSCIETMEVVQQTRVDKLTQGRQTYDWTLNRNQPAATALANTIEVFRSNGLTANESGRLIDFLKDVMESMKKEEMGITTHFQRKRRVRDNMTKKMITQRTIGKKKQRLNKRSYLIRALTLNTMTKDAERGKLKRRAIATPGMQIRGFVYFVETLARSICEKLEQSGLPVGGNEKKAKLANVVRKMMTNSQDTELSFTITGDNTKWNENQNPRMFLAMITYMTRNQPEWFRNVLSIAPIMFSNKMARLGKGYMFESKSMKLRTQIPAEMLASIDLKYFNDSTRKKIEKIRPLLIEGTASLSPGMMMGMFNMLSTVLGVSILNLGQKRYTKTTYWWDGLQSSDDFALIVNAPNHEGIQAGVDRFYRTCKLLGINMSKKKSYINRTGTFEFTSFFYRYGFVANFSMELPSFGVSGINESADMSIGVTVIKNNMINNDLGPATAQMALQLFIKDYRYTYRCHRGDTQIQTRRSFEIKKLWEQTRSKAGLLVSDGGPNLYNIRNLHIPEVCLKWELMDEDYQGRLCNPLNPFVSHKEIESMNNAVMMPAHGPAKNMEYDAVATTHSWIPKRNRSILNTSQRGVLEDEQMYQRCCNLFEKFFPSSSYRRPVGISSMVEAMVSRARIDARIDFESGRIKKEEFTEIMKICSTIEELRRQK
Sequence of RNase A (P61823 27-150): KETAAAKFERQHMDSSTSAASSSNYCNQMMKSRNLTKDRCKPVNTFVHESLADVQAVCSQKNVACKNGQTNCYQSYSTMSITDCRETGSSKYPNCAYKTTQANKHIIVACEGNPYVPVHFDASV
Sequence of T7 Phage RNA Polymerase (P00573 whole entry): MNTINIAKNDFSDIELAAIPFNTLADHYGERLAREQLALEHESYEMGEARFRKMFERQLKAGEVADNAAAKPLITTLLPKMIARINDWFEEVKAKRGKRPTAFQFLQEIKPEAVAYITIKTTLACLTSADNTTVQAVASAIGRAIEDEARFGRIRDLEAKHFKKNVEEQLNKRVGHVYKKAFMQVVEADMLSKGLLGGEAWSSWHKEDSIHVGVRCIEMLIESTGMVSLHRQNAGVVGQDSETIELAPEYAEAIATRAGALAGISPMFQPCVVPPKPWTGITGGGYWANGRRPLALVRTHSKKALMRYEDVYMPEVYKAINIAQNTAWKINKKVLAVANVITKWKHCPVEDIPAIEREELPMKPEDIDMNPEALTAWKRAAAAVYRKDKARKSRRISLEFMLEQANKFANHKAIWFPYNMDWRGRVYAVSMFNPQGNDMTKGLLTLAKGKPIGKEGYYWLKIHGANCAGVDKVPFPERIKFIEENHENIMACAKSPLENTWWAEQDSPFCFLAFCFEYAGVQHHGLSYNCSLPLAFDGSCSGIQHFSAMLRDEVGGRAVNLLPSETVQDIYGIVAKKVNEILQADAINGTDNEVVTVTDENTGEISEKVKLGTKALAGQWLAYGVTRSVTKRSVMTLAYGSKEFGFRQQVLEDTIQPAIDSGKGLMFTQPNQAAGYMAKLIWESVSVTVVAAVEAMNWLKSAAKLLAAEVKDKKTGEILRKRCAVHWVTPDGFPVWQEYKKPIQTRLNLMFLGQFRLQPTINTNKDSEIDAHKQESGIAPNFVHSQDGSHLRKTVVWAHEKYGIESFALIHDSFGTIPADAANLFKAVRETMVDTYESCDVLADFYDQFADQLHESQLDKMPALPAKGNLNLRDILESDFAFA
Sequence of VSV transcription (P03523 whole entry, looked up): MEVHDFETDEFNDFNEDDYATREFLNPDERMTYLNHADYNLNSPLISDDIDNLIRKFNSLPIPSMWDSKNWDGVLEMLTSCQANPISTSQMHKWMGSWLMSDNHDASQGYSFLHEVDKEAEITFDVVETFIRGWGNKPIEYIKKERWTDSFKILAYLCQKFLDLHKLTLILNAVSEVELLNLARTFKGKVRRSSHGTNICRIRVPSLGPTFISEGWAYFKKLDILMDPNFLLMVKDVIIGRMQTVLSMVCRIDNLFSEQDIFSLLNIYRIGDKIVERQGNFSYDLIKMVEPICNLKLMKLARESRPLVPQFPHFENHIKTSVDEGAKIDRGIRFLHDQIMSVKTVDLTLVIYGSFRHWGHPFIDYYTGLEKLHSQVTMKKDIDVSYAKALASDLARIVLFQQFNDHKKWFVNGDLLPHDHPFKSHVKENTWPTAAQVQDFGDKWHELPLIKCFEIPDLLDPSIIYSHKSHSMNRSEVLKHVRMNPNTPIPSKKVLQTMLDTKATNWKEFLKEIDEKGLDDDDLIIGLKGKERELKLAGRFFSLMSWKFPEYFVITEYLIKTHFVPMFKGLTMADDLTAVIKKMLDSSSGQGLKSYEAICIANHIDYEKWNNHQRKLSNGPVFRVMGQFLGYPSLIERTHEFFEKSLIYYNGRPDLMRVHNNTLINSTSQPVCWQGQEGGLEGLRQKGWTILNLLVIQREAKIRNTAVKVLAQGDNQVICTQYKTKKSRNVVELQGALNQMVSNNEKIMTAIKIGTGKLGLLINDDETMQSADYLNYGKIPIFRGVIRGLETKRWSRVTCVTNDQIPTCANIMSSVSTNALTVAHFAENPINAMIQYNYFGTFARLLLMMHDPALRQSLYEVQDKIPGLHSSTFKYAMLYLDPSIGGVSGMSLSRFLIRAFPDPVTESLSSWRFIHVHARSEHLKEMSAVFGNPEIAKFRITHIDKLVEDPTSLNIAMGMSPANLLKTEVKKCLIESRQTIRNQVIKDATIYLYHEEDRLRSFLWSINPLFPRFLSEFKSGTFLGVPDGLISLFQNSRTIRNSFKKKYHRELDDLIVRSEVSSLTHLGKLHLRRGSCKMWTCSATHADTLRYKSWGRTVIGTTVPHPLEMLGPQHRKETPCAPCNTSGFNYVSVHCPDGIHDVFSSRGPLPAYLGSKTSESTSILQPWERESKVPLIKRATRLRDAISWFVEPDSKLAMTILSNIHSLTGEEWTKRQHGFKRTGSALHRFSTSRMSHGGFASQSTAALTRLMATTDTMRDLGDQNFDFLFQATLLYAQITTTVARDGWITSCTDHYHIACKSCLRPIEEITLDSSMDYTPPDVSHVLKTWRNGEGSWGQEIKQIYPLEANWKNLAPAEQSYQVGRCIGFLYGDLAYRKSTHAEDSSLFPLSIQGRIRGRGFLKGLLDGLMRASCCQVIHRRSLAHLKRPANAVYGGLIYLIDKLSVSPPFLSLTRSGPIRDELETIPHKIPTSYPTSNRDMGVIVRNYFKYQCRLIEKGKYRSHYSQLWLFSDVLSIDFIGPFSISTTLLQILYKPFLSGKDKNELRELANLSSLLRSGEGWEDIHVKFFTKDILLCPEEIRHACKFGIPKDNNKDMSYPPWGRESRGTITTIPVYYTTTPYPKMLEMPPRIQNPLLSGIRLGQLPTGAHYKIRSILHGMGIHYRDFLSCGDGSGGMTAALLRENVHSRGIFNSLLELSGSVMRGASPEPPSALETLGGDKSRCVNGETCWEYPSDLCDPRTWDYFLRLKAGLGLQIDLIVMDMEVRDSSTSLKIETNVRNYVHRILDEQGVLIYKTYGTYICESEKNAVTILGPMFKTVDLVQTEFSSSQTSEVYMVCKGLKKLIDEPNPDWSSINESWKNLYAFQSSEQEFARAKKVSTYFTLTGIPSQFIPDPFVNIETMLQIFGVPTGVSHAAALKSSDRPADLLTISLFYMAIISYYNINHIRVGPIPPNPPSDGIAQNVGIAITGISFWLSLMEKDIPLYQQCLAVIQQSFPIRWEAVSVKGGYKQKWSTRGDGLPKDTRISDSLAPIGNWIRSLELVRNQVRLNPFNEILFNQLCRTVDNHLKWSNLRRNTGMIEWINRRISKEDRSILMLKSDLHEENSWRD

Broadly, the IC50 is the midpoint of a concentration-inhibition curve. Take `O=C(O)C(=O)CC(=O)C1(Cc2ccc(Cl)cc2)CCCN(Cc2ccccc2)C1` (centres unmarked) [Compound A, 4-[N-benzyl-3-(4-chlorobenzyl)piperidin-3-yl]2,4-dioxobutanoic acid hydrochloride]: the 50% inhibitory concentration (IC50) was 1.1 µM in [1]; 1.1 µM in assay [1] (read-out: IC50, inhibition of influenza virus transcription); above 500 µM on VSV transcription; above 100 µM at T7 Phage RNA Polymerase; above 500 µM on Hela RNA Polymerase II; above 100 µM against Hela DNA Polymerase-a. In addition, the IC50 on HIV RNase H was 100 µM; in assay [2], above 500 µM; on Influenza Endonuclease it was 1.8 µM; in [3], 0.25 µM; in [4], 0.5 µM; in [5], 0.62 µM. The concentration for half-maximal inhibition (IC50) in assay [6] is 0.85 µM; in [7] it was above 1000 µM; against RNase A, above 200 µM; at RNase U2, above 200 µM; on RNase T1, above 200 µM.

The values are drawn from patent US5618830A (priority 1995, dated 1997).
